Read-outs that look alike come from different tables or passages of the source.
Legend:
[1] = test system: melan-a cells; experiment: Effect of RO-31-8220 on growth of melan-a cells with piperine and TPA, SRB assay; assay type: cell-based, mouse; details: 4 days
Procedure: Cells of mouse melan-a cell line (passage number 18-24), a first known line of non-tumorigenic pigmented mouse melanocytes were maintained in a flask (Costar, Cambridge, Mass., USA) using RPMI 1640 (ICN, Costa, Mesa, Calif., USA) as a basic medium. For microplate proliferation assays, subconfluent melan-a cultures were trypsinized (0.25% trypsin at 37° C. for 5-10 min) and inoculated with a repeater-pipettor (Finn pipette, Labsystems, Finland) into 96-well microtiter plates (Costar, Cambridge, Mass., USA). The plates were incubated at 37° C. in a 10% CO2, 90% air humidified atmosphere for the stated length of time. At the end of the incubation, an SRB assay was performed. Briefly, cells attached to the bottom of the plate were fixed by addition of cold trichloroacetic acid (TCA, 4° C., Aldrich, Dorset, UK) on the top of the growth medium (final TCA 20% w/v). The plate was placed at 4° C. for 1 hour before being gently washed five times with tap water. It was allowed to dry in air, or aided with a hair dryer to speed up the drying process, then 50 μl of 4% w/v SRB dissolved in 1% acetic acid in water was added to each well for 30 min. […] The plate was shaken for 15 min on a gyratory shaker followed by reading the optical density (OD) at 550 nm in a microplate spectrophotometer (Anthos Labtec HT3, version 1.06). […]

[2] = test system: mouse melan-a cells; experiment: Melanocyte proliferant activity of piperine derivatives, SRB assay, 4 days, 10% FBS; assay type: cell-based; details: for Active at 10 μM? / More active than piperine at higher conc. (μM)?: overall summary; for More active than piperine at higher conc. (μM)?: concentrations at which more active than piperine
Procedure: The plates were incubated at 37° C. in a 10% CO2, 90% air humidified atmosphere for the stated length of time. At the end of the incubation, an SRB assay was performed. Briefly, cells attached to the bottom of the plate were fixed by addition of cold trichloroacetic acid (TCA, 4° C., Aldrich, Dorset, UK) on the top of the growth medium (final TCA 20% w/v). The plate was placed at 4° C. for 1 hour before being gently washed five times with tap water. It was allowed to dry in air, or aided with a hair dryer to speed up the drying process, then 50 μl of 4% w/v SRB dissolved in 1% acetic acid in water was added to each well for 30 min. At the end of the staining period, unbound SRB was removed by washing 4 times with 1% acetic acid. The plate was air dried again, and 150 μl of 10 mM aqueous Tris base (Sigma-Aldrich Co. Ltd, Irvine, UK) was added into each well to solubilize the cell-bound dye.
Various piperine derivatives of formula (1) were synthesised and tested for melanocyte (mouse melan-a) proliferant activity in-vitro. Cells we re incubated with the test compound for 4 days, as previously for the mouse cells but with 10% FBS, after which the sulphorhodamine-B (SRB) assay was performed to determnine cell number SRB uptake was measured as optical density at 550 nm. The control assay was carried out on cells incubated without test compound. There were 2 or 3 series of experiments, each of which consisted of six replcate experiments.
Percentage cell growth was obtained with a given compound calculated as (optical density in the presence of the compound/control optical density)×100.
Melan-a cell proliferant activity for tested compounds was compared with that obtained with piperine. […] All figures are given with Standard Error of the Mean.

[3] = test system: melan-a cells; experiment: Dendricity of melan-a cells by observation under microscope; assay type: cell-based, mouse; design: key: +++: highly dendritic; ++: moderately dendritic; +: weakly dendritic; −: no effect
Description: Effect on dendricity of melan-a cells by the test compounds was by observation under microscope. Dendricity is relevant to vitiligo since normal skin melanocytes have dendrites, but in vitiligo the melanocytes seem to lose these before they disappear from the patches.

[4] = Mus musculus, Melan-a, 96 h, single concentration (10 μM), melan-a, ± SEM, read-out: Percentage cell growth (Repeated experiments)
[5] = single concentration (10 μM), melan-a
[6] = Mus musculus, Melan-a, 96 h, read-out: growth of melan-a cells as % of control, dose experiment
[7] = Mus musculus, Melan-a, 96 h, 10 μM, read-out: growth of melan-a cells as % of control, dose experiment

| Structure (SMILES) | effect of RO-31-8220 on the proliferant effects of piperine and TPA on melan-a cells ([1]; RO-31-8220 0.1-100 nM, piperine 1 μM, TPA 20 nM) | cytotoxic effect of RO-31-8220 alone on melan-a cells ([1]; concentrations up to 100 nM) | activity at 10 µM [2, 4] [%] | Active at 10 μM? ([2]; melan-a) | Stimulant activity [2, 5] | Dendricity ([3]; Table 8, 10 μM) | activity at 1 µM [2, 6] [%] | activity at 10 µM [2, 7] [%] | activity at 25 µM ([2]; Mus musculus, Melan-a, 96 h, 25 μM, read-out: growth of melan-a cells as % of control, dose experiment) [%] | activity at 50 µM [2, 6] [%] | More active than piperine at higher conc. (μM)? [2] | Dendricity ([3]; Table 11, 10 μM) | Relative activity to piperine ([2]; (A-100) compound/(A-100) piperine, 10 μM) | activity at 100 µM [2, 6] [%] | Dentricity, dose experiment ([3]; 1 μM) | Dentricity, dose experiment ([3]; 10 μM) | Dentricity, dose experiment ([3]; 50 μM) | Dentricity, dose experiment ([3]; 100 μM) | Dendricity ([3]; Table 12, 10 μM) |
| --- | --- | --- | --- | --- | --- | --- | --- | --- | --- | --- | --- | --- | --- | --- | --- | --- | --- | --- | --- |
| Cn1cc(C2=C(c3cn(CCCSC(=N)N)c4ccccc34)C(=O)NC2=O)c2ccccc21 [RO-31-8220] | effectively inhibited | did not have significant cytotoxic effect |  |  |  |  |  |  |  |  |  |  |  |  |  |  |  |  |  |
| O=C(/C=C/c1ccc2c(c1)OCO2)N1CCOCC1 [RV-B03, 1-(3-trans-benzo-1,3-dioxol-5-ylacryloyl)morpholine] |  |  | 103 ± 12 | No | None | − |  |  |  |  |  |  |  |  |  |  |  |  |  |
| O=C(CCCCc1ccc2c(c1)OCO2)N1CCCCC1 [RV-C02, Tetrahydropiperine] |  |  |  | Yes | Positive |  | 134 ± 15 | 183 ± 33 | 199 ± 31 | 175 ± 12 | No | +++ |  |  |  |  |  |  |  |
| O=C(CCc1ccc2c(c1)OCO2)N1CCCCC1 [RV-C03, 3-benzo-1,3-dioxol-5-ylpropionic Acid Piperidide] |  |  | 104 ± 5 | No^b | None |  |  |  |  |  |  | + |  |  |  |  |  |  |  |
| COc1ccccc1/C=C/C(=O)N1CCCCC1 [RV-G01, 1-(2-methoxy-cinnamoyl)-piperidine] |  |  | 105 ± 8 | No | None |  | 99 ± 8 | 105 ± 8 |  | 103 ± 6 | No |  | 0.04 | 119 ± 9 | − | − | − | − |  |
| COc1cccc(/C=C/C(=O)N2CCCCC2)c1 [RV-G02, 1-(3-methoxy-cinnamoyl)piperidine] |  |  |  | No | Negative |  | 99 ± 5 | 95 ± 18 |  | 110 ± 11 | No |  |  | 127 ± 9 | − | − | − | − |  |
| COc1ccc(/C=C/C(=O)N2CCCCC2)cc1 [RV-G03, 1-(4-methoxy-cinnamoyl)piperidine] |  |  | 121 ± 8 | No | Non- significant |  | 90 ± 10 | 108 ± 20 |  | 111 ± 10 | No |  |  | 133 ± 15 | − | − | − | − | − |
| COc1ccc(/C=C/C(=O)N2CCCCC2)cc1OC [RV-G04, 1-(3,4-dimethoxycinnamoyl)piperidine] |  |  | 100 ± 9 | No | None |  | 95 ± 11 | 100 ± 9 |  | 114 ± 8 | No |  |  | 123 ± 7 | − | − | − | − | − |

— patent publication US6346539B1, “Treatment of skin conditions” (BTG International Limited, priority 1998, dated 2002)
